Assay results published in ChEMBL document CHEMBL1201861, “Genomics of Drug Sensitity in Cancer screening data, Wellcome Trust Sanger Institute”.

Legend:
Experiment in all cases: cells
Format in all cases: functional, cell-based
Settings in all cases: Homo sapiens
RPMI-8226 = system: RPMI-8226
Description: SANGER: Inhibition of human RPMI-8226 cell growth in a cell viability assay.

NMC-G1 = system: NMC-G1;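 note: growth inhibition of the NMC-G1 cell line, measured with a cell viability read-out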
Description: SANGER: Inhibition of human NMC-G1 cell growth in a cell viability assay.

ACN = system: ACN;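 note: growth inhibition of the human ACN cell line, read out via cell viability testing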
Description: SANGER: Inhibition of human ACN cell growth in a cell viability assay.

MEG-01 = system: MEG-01;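 note: growth inhibition of MEG-01 cells, read out by a cell viability assay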
Description: SANGER: Inhibition of human MEG-01 cell growth in a cell viability assay.

KNS-42 = system: KNS-42;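 note: growth inhibition of KNS-42 cells, read out with a cell viability assay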
Description: SANGER: Inhibition of human KNS-42 cell growth in a cell viability assay.

J-RT3-T3-5 = system: J-RT3-T3-5;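 note: cell viability assay measuring growth inhibition of human J-RT3-T3-5 cells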
Description: SANGER: Inhibition of human J-RT3-T3-5 cell growth in a cell viability assay.

AM-38 = system: AM-38;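 note: growth inhibition of AM-38 cells of human origin, read out by a cell viability assay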
Description: SANGER: Inhibition of human AM-38 cell growth in a cell viability assay.

ATN-1 = system: ATN-1;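 note: growth inhibition of human ATN-1 cells, read out with a cell viability assay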
Description: SANGER: Inhibition of human ATN-1 cell growth in a cell viability assay.

KINGS-1 = system: KINGS-1;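 note: cell viability assay measuring suppression of KINGS-1 cell growth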
Description: SANGER: Inhibition of human KINGS-1 cell growth in a cell viability assay.

SF-268 = system: SF-268;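 note: growth inhibition of SF-268 cells determined with a cell viability assay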
Description: SANGER: Inhibition of human SF268 cell growth in a cell viability assay.

NCI-H1838 = system: NCI-H1838;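 note: growth inhibition of NCI-H1838 cells, determined with a cell viability readout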
Description: SANGER: Inhibition of human NCI-H1838 cell growth in a cell viability assay.

KM-H2 = system: KM-H2;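 note: growth inhibition of KM-H2 cells, read out by a cell viability assay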
Description: SANGER: Inhibition of human KM-H2 cell growth in a cell viability assay.

8-MG-BA = system: 8-MG-BA;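 note: growth inhibition of 8-MG-BA cells, read out with a cell viability assay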
Description: SANGER: Inhibition of human 8-MG-BA cell growth in a cell viability assay.

NTERA-2-cl-D1 = system: NTERA-2-cl-D1;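 note: inhibition of cell growth, measured with a cell viability assay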
Description: SANGER: Inhibition of human NTERA-S-cl-D1 cell growth in a cell viability assay.

ES1 = system: ES1;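 note: growth inhibition of ES1 cells, read out with a cell viability assay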
Description: SANGER: Inhibition of human ES1 cell growth in a cell viability assay.

A101D = system: A101D;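 note: growth inhibition of the cell line, measured with a viability assay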
Description: SANGER: Inhibition of human A101D cell growth in a cell viability assay.

A4-Fuk = system: A4-Fuk;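 note: growth inhibition of A4-Fuk cells, read out by a cell viability assay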
Description: SANGER: Inhibition of human A4-Fuk cell growth in a cell viability assay.

VA-ES-BJ = system: VA-ES-BJ;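 note: growth inhibition of the VA-ES-BJ cell line, read out by a cell viability assay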
Description: SANGER: Inhibition of human VA-ES-BJ cell growth in a cell viability assay.

KURAMOCHI = system: KURAMOCHI;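 note: growth inhibition of KURAMOCHI cells, read out with a cell viability assay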
Description: SANGER: Inhibition of human KURAMOCHI cell growth in a cell viability assay.

BE-13 = system: BE-13;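 note: growth inhibition of human BE-13 cells, measured with a cell viability assay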
Description: SANGER: Inhibition of human BE-13 cell growth in a cell viability assay.

JVM-2 = system: JVM-2;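 note: growth inhibition of JVM-2 cells determined by a cell viability assay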
Description: SANGER: Inhibition of human JVM-2 cell growth in a cell viability assay.

K5 = system: K5
Description: SANGER: Inhibition of human K5 cell growth in a cell viability assay.

SCH = system: SCH;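 note: growth inhibition of human SCH cells, read out in a cell viability assay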
Description: SANGER: Inhibition of human SCH cell growth in a cell viability assay.

ONS-76 = system: ONS-76;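 note: growth inhibition of human ONS-76 cells, read out with a cell viability assay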
Description: SANGER: Inhibition of human ONS-76 cell growth in a cell viability assay.

K562 = system: K562
Description: SANGER: Inhibition of human K-562 cell growth in a cell viability assay.

EC-GI-10 = system: EC-GI-10
Description: SANGER: Inhibition of human EC-GI-10 cell growth in a cell viability assay.

CGTH-W-1 = system: CGTH-W-1;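 note: growth inhibition of human CGTH-W-1 cells measured by cell viability assay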
Description: SANGER: Inhibition of human CGTH-W-1 cell growth in a cell viability assay.

SW982 = system: SW982;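 note: growth inhibition of SW982 cells, read out with a cell viability assay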
Description: SANGER: Inhibition of human SW982 cell growth in a cell viability assay.

no-11 = system: no-11;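 note: growth inhibition of human NO-11 cells, read out with a cell viability assay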
Description: SANGER: Inhibition of human no-11 cell growth in a cell viability assay.

DU-4475 = system: DU-4475
Description: SANGER: Inhibition of human DU-4475 cell growth in a cell viability assay.

MOLT-16 = system: MOLT-16;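 note: growth inhibition of human MOLT-16 cells, read out with a cell viability assay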
Description: SANGER: Inhibition of human MOLT-16 cell growth in a cell viability assay.

KALS-1 = system: KALS-1;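 note: growth inhibition of KALS-1 cells, determined with a cell viability assay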
Description: SANGER: Inhibition of human KALS-1 cell growth in a cell viability assay.

CCRF-CEM = system: CCRF-CEM;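 note: inhibition of CCRF-CEM cell growth, measured by a cell viability assay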
Description: SANGER: Inhibition of human CCRF-CEM cell growth in a cell viability assay.

EW-16 = system: EW-16;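 note: growth inhibition of human EW-16 cells, read out as cell viability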
Description: SANGER: Inhibition of human EW-16 cell growth in a cell viability assay.

SK-PN-DW = system: SK-PN-DW;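 note: growth inhibition measured with a viability assay on these cells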
Description: SANGER: Inhibition of human SK-PN-DW cell growth in a cell viability assay.

SK-MEL-1 = system: SK-MEL-1;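 note: growth inhibition of human SK-MEL-1 cells, read out by a cell viability assay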
Description: SANGER: Inhibition of human SK-MEL-1 cell growth in a cell viability assay.

NCI-H69 = system: NCI-H69;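 note: growth inhibition of the cell line, read out with a cell viability assay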
Description: SANGER: Inhibition of human NCI-H69 cell growth in a cell viability assay.

TE-10 = system: TE-10;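 note: growth inhibition of TE-10 cells, measured by a cell viability assay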
Description: SANGER: Inhibition of human TE-10 cell growth in a cell viability assay.

MFH-ino = system: MFH-ino;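 note: growth inhibition of human MFH-ino cells, read out by a cell viability assay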
Description: SANGER: Inhibition of human MFH-ino cell growth in a cell viability assay.

SJSA-1 = system: SJSA-1;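 note: growth inhibition of human SJSA-1 cells, read out through a cell viability measurement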
Description: SANGER: Inhibition of human SJSA-1 cell growth in a cell viability assay.

CTB-1 = system: CTB-1
Description: SANGER: Inhibition of human CTB-1 cell growth in a cell viability assay.

EW-1 = system: EW-1;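 note: growth inhibition of the human EW-1 cell line, read out by a cell viability assay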
Description: SANGER: Inhibition of human EW-1 cell growth in a cell viability assay.

MN-60 = system: MN-60;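 note: growth inhibition of the MN-60 cell line, determined with a cell viability assay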
Description: SANGER: Inhibition of human MN-60 cell growth in a cell viability assay.

COLO-824 = system: COLO-824
Description: SANGER: Inhibition of human COLO-824 cell growth in a cell viability assay.

LS-1034 = system: LS-1034
Description: SANGER: Inhibition of human LS-1034 cell growth in a cell viability assay.

TGBC1TKB = system: TGBC1TKB;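 note: growth inhibition of TGBC1TKB cells, read out by a cell viability assay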
Description: SANGER: Inhibition of human TGBC1TKB cell growth in a cell viability assay.

LAN-6 = system: LAN-6;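 note: growth inhibition of LAN-6 cells, determined with a cell viability assay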
Description: SANGER: Inhibition of human LAN-6 cell growth in a cell viability assay.

NCI-H209 = system: NCI-H209;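 note: growth inhibition of human NCI-H209 cells, measured by a cell viability assay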
Description: SANGER: Inhibition of human NCI-H209 cell growth in a cell viability assay.

OMC-1 = system: OMC-1;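 note: growth inhibition of the OMC-1 cell line, measured by a cell viability assay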
Description: SANGER: Inhibition of human OMC-1 cell growth in a cell viability assay.

NCI-H226 = system: NCI-H226;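 note: cell viability read-out used to gauge growth inhibition of the cells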
Description: SANGER: Inhibition of human NCI-H226 cell growth in a cell viability assay.

LOX IMVI = system: LOX IMVI
Description: SANGER: Inhibition of human LOXIMVI cell growth in a cell viability assay.

KLE = system: KLE;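 note: growth inhibition of human KLE cells, read out with a cell viability assay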
Description: SANGER: Inhibition of human KLE cell growth in a cell viability assay.

SK-NEP-1 = system: SK-NEP-1;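 note: growth inhibition of human SK-NEP-1 cells, read out by a cell viability assay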
Description: SANGER: Inhibition of human SK-NEP-1 cell growth in a cell viability assay.

SW872 = system: SW872;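 note: growth inhibition of SW872 cells, read out by a viability assay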
Description: SANGER: Inhibition of human SW872 cell growth in a cell viability assay.

SNU-C2B = system: SNU-C2B;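 note: cell viability readout used to measure compound-driven suppression of SNU-C2B cell proliferation, IC50 marking half-maximal growth inhibition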
Description: SANGER: Inhibition of human SNU-C2B cell growth in a cell viability assay.

MMAC-SF = system: MMAC-SF;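 note: growth inhibition of human MMAC-SF cells, read out with a cell viability assay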
Description: SANGER: Inhibition of human MMAC-SF cell growth in a cell viability assay.

HT = system: HT
Description: SANGER: Inhibition of human HT cell growth in a cell viability assay.

KS-1 = system: KS-1;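 note: growth inhibition of KS-1 cells, read out with a cell viability assay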
Description: SANGER: Inhibition of human KS-1 cell growth in a cell viability assay.

TE-5 = system: TE-5;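 note: inhibition of cell growth, read out by a cell viability assay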
Description: SANGER: Inhibition of human TE-5 cell growth in a cell viability assay.

NCI-H1648 = system: NCI-H1648
Description: SANGER: Inhibition of human NCI-H1648 cell growth in a cell viability assay.

LC-2-ad = system: LC-2-ad
Description: SANGER: Inhibition of human LC-2-ad cell growth in a cell viability assay.

U-266 = system: U-266
Description: SANGER: Inhibition of human U-266 cell growth in a cell viability assay.

697 = system: 697
Description: SANGER: Inhibition of human 697 cell growth in a cell viability assay.

GI-1 = system: GI-1
Description: SANGER: Inhibition of human GI-1 cell growth in a cell viability assay.

NCI-H1581 = system: NCI-H1581
Description: SANGER: Inhibition of human NCI-H1581 cell growth in a cell viability assay.

GOTO = system: GOTO
Description: SANGER: Inhibition of human GOTO cell growth in a cell viability assay.

## CO[C@@]12[C@H](COC(N)=O)C3=C(C(=O)C(C)=C(N)C3=O)N1C[C@@H]1N[C@@H]12 [MITOMYCIN]
RPMI-8226
  IC50: 1240 nM
NMC-G1
  IC50: 217 nM
ACN
  IC50: 128 nM
MEG-01
  IC50: 683 nM
KNS-42
  IC50: 1090 nM
J-RT3-T3-5
  IC50: 186 nM
AM-38
  IC50: 221 nM
ATN-1
  IC50: 17.4 nM
KINGS-1
  IC50: 8610 nM
SF-268
  IC50: 171 nM
NCI-H1838
  IC50: 404 nM
KM-H2
  IC50: 130 nM
8-MG-BA
  IC50: 104 nM
NTERA-2-cl-D1
  IC50: < 62.5 nM
ES1
  IC50: < 62.5 nM
A101D
  IC50: 257 nM
A4-Fuk
  IC50: 225 nM
VA-ES-BJ
  IC50: 52.2 nM
KURAMOCHI
  IC50: 523 nM
BE-13
  IC50: < 62.5 nM
JVM-2
  IC50: 397 nM
K5
  IC50: 1780 nM
SCH
  IC50: > 16000 nM
ONS-76
  IC50: 330 nM
K562
  IC50: 1980 nM
EC-GI-10
  IC50: 14900 nM
CGTH-W-1
  IC50: 38.7 nM
SW982
  IC50: 105 nM
no-11
  IC50: 7740 nM
DU-4475
  IC50: 47.5 nM
MOLT-16
  IC50: 585 nM
KALS-1
  IC50: 129 nM
CCRF-CEM
  IC50: 61.7 nM
EW-16
  IC50: < 62.5 nM
SK-PN-DW
  IC50: 63.8 nM
SK-MEL-1
  IC50: 1890 nM
NCI-H69
  IC50: 1680 nM
TE-10
  IC50: 72.6 nM
MFH-ino
  IC50: 70.6 nM
SJSA-1
  IC50: 132 nM
CTB-1
  IC50: 306 nM
EW-1
  IC50: 88.1 nM
MN-60
  IC50: 1260 nM
COLO-824
  IC50: 1440 nM
LS-1034
  IC50: 30.2 nM
TGBC1TKB
  IC50: 1210 nM
LAN-6
  IC50: 328 nM
NCI-H209
  IC50: < 62.5 nM
OMC-1
  IC50: 390 nM
NCI-H226
  IC50: 777 nM
LOX IMVI
  IC50: 353 nM
KLE
  IC50: 2980 nM
SK-NEP-1
  IC50: 167 nM
SW872
  IC50: < 62.5 nM
SNU-C2B
  IC50: 295 nM
MMAC-SF
  IC50: 1010 nM
HT
  IC50: 1540 nM
KS-1
  IC50: 364 nM
TE-5
  IC50: 132 nM
NCI-H1648
  IC50: 523 nM
LC-2-ad
  IC50: < 62.5 nM
U-266
  IC50: 866 nM
697
  IC50: < 62.5 nM
GI-1
  IC50: 35.2 nM
NCI-H1581
  IC50: 907 nM
GOTO
  IC50: 554 nM

## CC(C)=CC[C@@H](O)C1=CC(=O)c2c(O)ccc(O)c2C1=O [SHIKONIN]
RPMI-8226
  IC50: 472 nM
NMC-G1
  IC50: 1300 nM
ACN
  IC50: 917 nM
MEG-01
  IC50: 451 nM
KNS-42
  IC50: > 16000 nM
J-RT3-T3-5
  IC50: 2090 nM
AM-38
  IC50: 96.3 nM
ATN-1
  IC50: 849 nM
KINGS-1
  IC50: 14100 nM
SF-268
  IC50: 5580 nM
NCI-H1838
  IC50: > 16000 nM
KM-H2
  IC50: 1040 nM
8-MG-BA
  IC50: 85.6 nM
NTERA-2-cl-D1
  IC50: 144 nM
ES1
  IC50: 503 nM
A101D
  IC50: < 62.5 nM
A4-Fuk
  IC50: 250 nM
VA-ES-BJ
  IC50: 401 nM
KURAMOCHI
  IC50: 3160 nM
BE-13
  IC50: 1200 nM
JVM-2
  IC50: 3870 nM
K5
  IC50: 734 nM
SCH
  IC50: > 16000 nM
ONS-76
  IC50: 358 nM
K562
  IC50: > 16000 nM
EC-GI-10
  IC50: > 16000 nM
CGTH-W-1
  IC50: 500 nM
SW982
  IC50: 60.2 nM
no-11
  IC50: 805 nM
DU-4475
  IC50: 180 nM
MOLT-16
  IC50: 2760 nM
KALS-1
  IC50: 1320 nM
CCRF-CEM
  IC50: 567 nM
EW-16
  IC50: 299 nM
SK-PN-DW
  IC50: 36.5 nM
SK-MEL-1
  IC50: > 16000 nM
NCI-H69
  IC50: 6710 nM
TE-10
  IC50: 986 nM
MFH-ino
  IC50: 864 nM
SJSA-1
  IC50: 5530 nM
CTB-1
  IC50: 859 nM
EW-1
  IC50: 844 nM
MN-60
  IC50: 348 nM
COLO-824
  IC50: 715 nM
LS-1034
  IC50: 2750 nM
TGBC1TKB
  IC50: 1430 nM
LAN-6
  IC50: 3220 nM
NCI-H209
  IC50: 12300 nM
OMC-1
  IC50: 1750 nM
NCI-H226
  IC50: 645 nM
LOX IMVI
  IC50: 412 nM
KLE
  IC50: 685 nM
SK-NEP-1
  IC50: 1080 nM
SW872
  IC50: 367 nM
SNU-C2B
  IC50: > 16000 nM
MMAC-SF
  IC50: 752 nM
HT
  IC50: 1090 nM
KS-1
  IC50: 41.5 nM
TE-5
  IC50: 1000 nM
NCI-H1648
  IC50: 11100 nM
LC-2-ad
  IC50: 953 nM
U-266
  IC50: 675 nM
697
  IC50: 876 nM
GI-1
  IC50: 568 nM
NCI-H1581
  IC50: > 16000 nM
GOTO
  IC50: 4590 nM
